{"source": "patent US20090176718A1", "about": "“Berry Preparations For Treatment Of Diabetes And Metabolic Syndrome” (priority 2007, published 2009)", "key": {"[1]": {"tested_on": "male C57bl/6J mice fed very high-fat diet (diet induced diabetes)", "assay": "Blood glucose levels in food restricted high-fat-diet (diabetic) C57BL/6J mice after gavage, vehicle 66% LABRASOL", "type": "in vivo, mouse", "settings": "for Hypoglycemic activity (in words): 300 mg/kg; for % decrease from 0 h / Blood glucose, 6 hours: 6 hours", "description": "The C57B6 mouse strain becomes diabetic when maintained on a high fat diet, it therefore serves as a model for Type 2 diabetes. A screen for treatments effective against diet induced diabetes utilizes male C57BL/6J mice (4-5 week old, 19-20 g) fed a high-fat diet (60% fat in kcal) for 10-16 weeks. This diet induces obesity and diabetes in this mouse strain. Extracts that induce a 20-40% decline in the blood glucose level are used for further testing.\nFive-week-old male C57bl/6J mice were purchased from Jackson Labs (Maine) and were acclimatized for 1 week before being randomly assigned into the experimental groups. The animals were housed four to a cage with free access to water in a room with a 12:12 hour light-dark cycle (7:00 AM-7:00 PM), a temperature of 24±1° C., and the animals were weighed weekly. During the acclimatization period, each animal was fed a regular diet ad libitum. At 6-weeks old, the mice were randomly divided into two groups: low fat or very high fat fed groups. The mice continued to receive either a low fat diet (LFD) or very high-fat diet (VHFD) for a 12-week period. The high-fat diet food was purchased from Research Diets Inc., and the nutrition content of very high-fat diet food was similar to that of the low fat diet food except that carbohydrates were lower (70 kcal % vs. 20 kcal %) and the addition of more lard (10 kcal % vs. 60 kcal %) in the diet. Body weights were measured weekly, and at every other week blood was collected for blood glucose analysis. […] Animals fed with LFD were also fasted for 4 hours. […] As a positive control, metformin (Fortamet®, Gluocphase®, Glumetza®, Romet®) was administered instead of plant extract at a dose of 300 mg/kg (MET300). […] Without being limited by theory, metformin may act by increasing insulin sensitivity via increasing the utilization of glucose. The experimental protocols were approved by Rutgers University Institutional Care and Use Committee and followed federal, and state laws.\nAll treatments were provided by gavage with a vehicle of 66% LABRASOL®, a lipid-based self-emulsifying excipient. Abbreviations for Table 1 are as follows: FC=crude extract, F2=anthocyanin enriched extract, FT=treated extract to promote chalcone formation, metformin is a drug used as a positive control. The results were as follows:\nAll treatments were provided by gavage with a vehicle of 66% LABRASOL®. Abbreviations for Table 2 are as follows: FC=crude extract, F2=anthocyanin-enriched extract, FT=treated extract to promote chalcone formation, metformin is a drug used as a positive control; *:p<0.05; **:p<0.01; ***:p<0.001 vs 0 hours; c:p<0.05; cc:p<0.01; ccc:p<0.001 vs LABRASOL®. The results were as follows:\nAll treatments were provided by gavage with a vehicle of 66% LABRASOL®. Abbreviations for Table 3 are as follows: FT=treated extract to promote chalcone formation, F2=anthocyanin enriched extract, MBCE=maqui berry crude extract, MBA=maqui berry anthocyanin-rich extract, metformin is a drug used as a positive control; *:p<0.05; **:p<0.01; ***:p<0.001 vs. 0 hours; c:p<0.05; cc:p<0.01; ccc:p<0.001 vs. LABRASOL®.\nThe hypoglycemic effects of delphinidin-3-glucoside (Dp 3-glc) and malvidin-3-glucoside (Mv-3-glc) relative to blueberry anthocyanin-enriched extracts and metformin in insulin resistant C57bl/6J mice were investigated. Malvidin glycosides are the predominant anthocyanins of the lowbush blueberry extracts. Delphinidin-3-glucoside likely is a major component of the blueberry extracts. It is reported to be the active hypoglycemic compound from the leaves of Vaccinium species. The animals were maintained on a high fat diet and food restricted 4 hours prior to treatment by gavage. The extracts and metformin were formulated with 66% Labrasol as the delivery vehicle"}, "[2]": {"tested_on": "food restricted C57B6 mice", "assay": "Blood glucose levels in food restricted C57B6 mice using water as the gavage vehicle", "type": "in vivo, mouse", "settings": "Table 5, 300 mg/kg gavage", "experimental": "Five-week-old male C57bl/6J mice were purchased from Jackson Labs (Maine) and were acclimatized for 1 week before being randomly assigned into the experimental groups. The animals were housed four to a cage with free access to water in a room with a 12:12 hour light-dark cycle (7:00 AM-7:00 PM), a temperature of 24±1° C., and the animals were weighed weekly. During the acclimatization period, each animal was fed a regular diet ad libitum. At 6-weeks old, the mice were randomly divided into two groups: low fat or very high fat fed groups. The mice continued to receive either a low fat diet (LFD) or very high-fat diet (VHFD) for a 12-week period. The high-fat diet food was purchased from Research Diets Inc., and the nutrition content of very high-fat diet food was similar to that of the low fat diet food except that carbohydrates were lower (70 kcal % vs. 20 kcal %) and the addition of more lard (10 kcal % vs. 60 kcal %) in the diet. Body weights were measured weekly, and at every other week blood was collected for blood glucose analysis. Animals fed with VHFD were fasted for 4 hours and fed orally (gavage) with plant extracts (500 mg/kg) or […] to test efficacy of plant extracts. Animals fed with LFD were also fasted for 4 hours. Blood glucose readings are made 0 hours, 3 hours, and 6 hours after treatment (animals were fasted during the testing period). As a positive control, metformin (Fortamet®, Gluocphase®, Glumetza®, Romet®) was administered instead of plant extract at a dose of 300 mg/kg (MET300). […] Without being limited by theory, metformin may act by increasing insulin sensitivity via increasing the utilization of glucose. The experimental protocols were approved by Rutgers University Institutional Care and Use Committee and followed federal, and state laws.\nThe MBA was active at both 500 mg/kg and 250 mg/kg. Therefore, the use of Labrasol as a bioenhancing agent dose was not necessary with the MBA. A robust response was seen when Labrasol was not included in the dosing vehicle."}, "[3]": {"settings": "Example 3, 300 mg/kg by gavage with Labrasol, insulin resistant C57bl/6J mice"}, "[4]": {"settings": "Table 4, insulin resistant C57bl/6J mice, 300 mg/kg gavage in 66% Labrasol"}, "[5]": {"settings": "Table 2, 300 mg/kg gavage in 66% LABRASOL"}, "[6]": {"settings": "Table 3, 250 mg/kg gavage in 66% LABRASOL"}}, "note": "Marks after values point to notes of the source that are not given here.", "data": [{"smiles": "OC[C@H]1O[C@@H](Oc2cc3c(O)cc(O)cc3[o+]c2-c2cc(O)c(O)c(O)c2)[C@H](O)[C@@H](O)[C@@H]1O", "note": "[Dp 3-glc, delphinidin-3-glucoside]", "values": [{"measurement": "Hypoglycemic activity (in words)", "setting": "[1]; [3]", "result": "did not significantly show hypoglycemic activity"}, {"measurement": "Hypoglycemic activity (in words)", "setting": "[1]; Example 3, 300 mg/kg by gavage with Labrasol, insulin resistant C57bl/6J mice, listed as delphinidin-3-O-glucoside", "result": "did not have significant hypoglycemic activity"}, {"measurement": "Blood glucose, 0 hours", "setting": "[1]; [4]", "result": "214 ± 7.4"}, {"measurement": "% decrease from 0 h", "setting": "[1]; [4]", "result": "−17 ± 5.7", "unit": "%"}, {"measurement": "Blood glucose, 6 hours", "setting": "[1]; [4]", "result": "186.6 ± 15.5"}]}, {"smiles": "CN(C)C(=N)N=C(N)N", "note": "[Metformin, metformin]", "values": [{"measurement": "Blood glucose, 0 hours", "setting": "[1]; Table 1, 300 mg/kg gavage in 66% LABRASOL", "result": "226 ± 18"}, {"measurement": "Blood glucose, 2 hours", "setting": "[1]; Table 1, 300 mg/kg gavage in 66% LABRASOL, 2 hours", "result": "183 ± 25"}, {"measurement": "Blood glucose, 4 hours", "setting": "[1]; Table 1, 300 mg/kg gavage in 66% LABRASOL, 4 hours", "result": "165 ± 29"}, {"measurement": "% decrease from 0 hours", "setting": "[1]; Table 1, 300 mg/kg gavage in 66% LABRASOL, last time point 4 hours", "result": "−27", "unit": "%"}, {"measurement": "Blood glucose, 0 hours", "setting": "[1]; [5]", "result": "207 ± 18"}, {"measurement": "Blood glucose, 3 hours", "setting": "[1]; [5]", "result": "211 ± 15"}, {"measurement": "Blood glucose, 5 hours", "setting": "[1]; Table 2, 300 mg/kg gavage in 66% LABRASOL, 5 hours", "result": "128 ± 17**^cc"}, {"measurement": "% decrease from 0 hours", "setting": "[1]; Table 2, 300 mg/kg gavage in 66% LABRASOL, last time point 5 hours", "result": "−38", "unit": "%"}, {"measurement": "Blood glucose, 0 hours", "setting": "[1]; [6]", "result": "249 ± 29"}, {"measurement": "Blood glucose, 3 hours", "setting": "[1]; [6]", "result": "273 ± 32"}, {"measurement": "Blood glucose, 6 hours", "setting": "[1]; [6]", "result": "214 ± 39"}, {"measurement": "% decrease from 0 hours", "setting": "[1]; Table 3, 250 mg/kg gavage in 66% LABRASOL, last time point 6 hours", "result": "−14", "unit": "%"}, {"measurement": "Blood glucose, 0 hours", "setting": "[1]; [4]", "result": "206.7 ± 11"}, {"measurement": "% decrease from 0 h", "setting": "[1]; [4]", "result": "−49 ± 4.5", "unit": "%"}, {"measurement": "Blood glucose, 6 hours", "setting": "[1]; [4]", "result": "108 ± 8.9"}, {"measurement": "Blood glucose, 0 hours", "setting": "[2]; 0 hours", "result": "189 ± 11.1"}, {"measurement": "% decrease from 0 hours", "setting": "[2]; 6 hours", "result": "−43.4 ± 7.8", "unit": "%"}, {"measurement": "Blood glucose, 6 hours", "setting": "[2]; 6 hours", "result": "106.8 ± 14.2"}]}, {"smiles": "COc1cc(-c2[o+]c3cc(O)cc(O)c3cc2O[C@@H]2O[C@H](CO)[C@@H](O)[C@H](O)[C@H]2O)cc(OC)c1O", "note": "[Mv-3-glc, malvidin-3-glucoside]", "values": [{"measurement": "Lowered blood glucose levels by", "setting": "[1]; Example 3, 300 mg/kg by gavage with Labrasol", "result": 34, "unit": "%"}, {"measurement": "Hypoglycemic activity (in words)", "setting": "[1]; [3]", "result": "comparable to the hypoglycemic activity of the phenolics-rich extract at a dose of 500 mg/kg"}, {"measurement": "Hypoglycemic activity (in words)", "setting": "[1]; Example 3, 300 mg/kg by gavage with Labrasol, insulin resistant C57bl/6J mice, listed as malvidin glucoside", "result": "comparable to the metformin positive control at 300 mg/kg"}, {"measurement": "Blood glucose, 0 hours", "setting": "[1]; [4]", "result": "204 ± 20.8"}, {"measurement": "% decrease from 0 h", "setting": "[1]; [4]", "result": "−31 ± 6.3", "unit": "%"}, {"measurement": "Blood glucose, 6 hours", "setting": "[1]; [4]", "result": "134.4 ± 8.3"}]}]}
